Data on 21 compounds can be found in patent publication US20240368150A1 (Hoffmann-La Roche Inc., priority 2021, published 2024).

In assay [1] the test system is primary human T-cells.
The subject of assay [2] is primary human T-cells. The assay is described as follows: Proliferation assay after 5 days (CellTiter-Glo, CD3 stimulation; PBS counter screen). In kind it is cell-based. As to conditions: CD3 stimulation; for Emax / Emax proliferation (% activation): 5 days, normalized to reference compound A1 as stimulator control = 100%, DMSO neutral control; for Emax: read-out: Emax proliferation (% activation); for EC50: primary human T-cells, CellTiter-Glo after 5 days, EC50 of fitted sigmoidal curve, read-out: Tcell Proliferation CD3 EC50. The essentials:
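Luminescent ATP detection (CellTiter-Glo 2.0) quantified cell number 5 days after compounds went onto medium-only plates. Wells showing visible toxicity or precipitate were noted beforehand, and compounds that stimulated unstimulated cells or lowered viability were flagged.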

Like-named read-outs stand apart in the source and are kept apart here. Where only a bound is given, the exact number is not on record here.

In the case of `N[C@H]1C[S+]([O-])c2ccc(-c3nnc(CC(F)(F)F)o3)cc2N(Cc2ccc(OC(F)(F)F)cc2)C1=O` (single isomer, unassigned; epimer a) [Example 427], the EC50 in assay [1] and in assay [2] was over 10000 nM each time. Moreover, in assay [2] (Homo sapiens, T-cell, 120 h), the Emax came to 26%.
The compound `N[C@H]1CS(=O)(=O)c2cc(F)c(-c3nnc(N4CCC(F)(F)CC4)o3)cc2N(Cc2ccc(Cl)cc2)C1=O` [Example 480, (3R)-3-amino-5-[(4-chlorophenyl)methyl]-7-[5-(4,4-difluoro-1-piperidyl)-1,3,4-oxadiazol-2-yl]-8-fluoro-1,1-dioxo-2,3-dihydro-1λ^6,5-benzothiazepin-4-one] came in with an EC50 in assay [1] of under 15.1 nM. For the same compound, in assay [2] (Homo sapiens, T-cell, 120 h), the Emax is 152% and the EC50 came to 162 nM.
`CC(C)(C#N)c1nnc(-c2cc3c(cc2F)S(=O)(=O)C[C@H](N)C(=O)N3Cc2ccc(OC(F)(F)F)cc2)o1` [Example 59]: the EC50 came to 79.9 nM in assay [1] and 54.5 nM in assay [2] (Homo sapiens, T-cell, 120 h). The Emax in assay [2] (Homo sapiens, T-cell, 120 h) was 94%.
Take `N[C@H]1CS(=O)(=O)c2ccc(-c3nnc(N4CC5(CCC5)C4)o3)cc2N(Cc2ccc(Cl)cc2)C1=O` [Example 398, (3R)-3-amino-7-[5-(2-azaspiro[3.3]heptan-2-yl)-1,3,4-oxadiazol-2-yl]-5-[(4-chlorophenyl)methyl]-1,1-dioxo-2,3-dihydro-1λ^6,5-benzothiazepin-4-one]: the EC50 worked out at 879 nM in assay [1] and 3480 nM in assay [2] (Homo sapiens, T-cell, 120 h). Moreover, the Emax in assay [2] (Homo sapiens, T-cell, 120 h) came out at 115%.
As for `CC(=O)NCCCCCCCCCCCOc1ccc(CN2C(=O)[C@@H](N)CS(=O)(=O)c3cc(F)c(-c4nnc(C(C)(C)C)o4)cc32)cc1` [Example 235, N-[11-[4-[[(3R)-3-amino-7-(5-tert-butyl-1,3,4-oxadiazol-2-yl)-8-fluoro-1,1,4-trioxo-2,3-dihydro-1λ^6,5-benzothiazepin-5-yl]methyl]phenoxy]undecyl]acetamide], the EC50 in assay [1] turned out to be 170 nM; in assay [2] (Homo sapiens, T-cell, 120 h), 46.6 nM. The Emax in assay [2] (Homo sapiens, T-cell, 120 h) came to 108%.
In the case of `COC(=O)N1CC2CC(c3nc(-c4cc5c(cc4F)[S+]([O-])C[C@H](N)C(=O)N5Cc4ccc(OC(F)(F)F)cc4)no3)(C2)C1` (stereo partly drawn) [Example 337, methyl 1-[3-[(3R)-3-amino-8-fluoro-1,4-dioxo-5-[[4-(trifluoromethoxy)phenyl]methyl]-2,3-dihydro-1λ^4,5-benzothiazepin-7-yl]-1,2,4-oxadiazol-5-yl]-3-azabicyclo[3.1.1]heptane-3-carboxylate], the EC50 in assay [1] was 5950 nM. In assay [2], the “Emax proliferation (% activation)” value came to 92 % activation and the EC50 was found to be 2270 nM.
Take `NC1CN(c2nnc(-c3cc4c(cc3F)S(=O)(=O)C[C@H](N)C(=O)N4Cc3ccc(Cl)cc3)o2)CC(F)(F)C1` (stereo partly drawn) [Example 477, (3R)-3-amino-7-[5-(5-amino-3,3-difluoro-1-piperidyl)-1,3,4-oxadiazol-2-yl]-5-[(4-chlorophenyl)methyl]-8-fluoro-1,1-dioxo-2,3-dihydro-1λ^6.5-benzothiazepin-4-one]: the EC50 in assay [1] worked out at 2700 nM. Besides, in assay [2] (Homo sapiens, T-cell, 120 h), the Emax stood at 77% and the EC50 came to 3490 nM.
Turning to `COC(F)(c1nnc(-c2ccc3c(c2)N(Cc2ccc(OC(F)(F)F)cc2)C(=O)[C@@H](N)C[S+]3[O-])o1)C(F)(F)F` (single isomer, unassigned; epimer a) [Example 425], the EC50 in assay [1] is over 10000 nM; in assay [2] (Homo sapiens, T-cell, 120 h) it was 1880 nM. For the same compound, in assay [2], the “Emax proliferation (% activation)” value was determined as 81 % activation.
The compound `CC(C)(C)c1nnc(-c2ccc3c(c2)N(Cc2ccc(N4CCOCC4)cc2)C(=O)[C@@H](N)CS3(=O)=O)o1` [Example 446, (3R)-3-amino-7-(5-tert-butyl-1,3,4-oxadiazol-2-yl)-5-[(4-morpholinophenyl)methyl]-1,1-dioxo-2,3-dihydro-1λ^6,5-benzothiazepin-4-one] showed an EC50 in assay [1] of 7570 nM. In assay [2] (Homo sapiens, T-cell, 120 h), the Emax turned out to be 51% and the EC50 came to 9900 nM.
As for `CC(C)(C)c1nnc(-c2cc3c(cc2F)S(=O)(=O)C[C@H](N)C(=O)N3Cc2ccc(F)c(F)c2)o1` [Example 246, (3R)-3-amino-7-(5-tert-butyl-1,3,4-oxadiazol-2-yl)-5-[(3,4-difluorophenyl)methyl]-8-fluoro-1,1-dioxo-2,3-dihydro-1λ^6,5-benzothiazepin-4-one], the EC50 in assay [1] came out at 342 nM; in assay [2] (Homo sapiens, T-cell, 120 h) it was 442 nM. Further, in assay [2] (Homo sapiens, T-cell, 120 h), the Emax came to 110%.
Take `CC(C)Nc1nnc(-c2ccc3c(c2)N(Cc2ccc(Cl)cc2)C(=O)[C@@H](N)CS3(=O)=O)o1` [Example 399, (3R)-3-amino-5-[(4-chlorophenyl)methyl]-7-[5-(isopropylamino)-1,3,4-oxadiazol-2-yl]-1,1-dioxo-2,3-dihydro-1λ^6,5-benzothiazepin-4-one]: the EC50 in assay [1] turned out to be 3580 nM. Besides, in assay [2] (Homo sapiens, T-cell, 120 h), the Emax amounted to 73% and the EC50 was 3460 nM.
The like results for `CC(C)(CN1CCOCC1)c1nnc(-c2cc3c(cc2F)S(=O)(=O)C[C@H](N)C(=O)N3Cc2ccc(Cl)cc2)o1` [Example 147, (3R)-3-amino-5-[(4-chlorophenyl)methyl]-7-[5-(1,1-dimethyl-2-morpholino-ethyl)-1,3,4-oxadiazol-2-yl]-8-fluoro-1,1-dioxo-2,3-dihydro-1λ^6,5-benzothiazepin-4-one] were, in that order, 348 nM, 117% and 343 nM.
Compound `N[C@H]1CS(=O)(=O)c2cc(F)c(-c3noc(C4(C(F)(F)F)CC4)n3)cc2N(Cc2ccc(OC(F)(F)F)cc2)C1=O` [Example 344, (3R)-3-amino-8-fluoro-1,1-dioxo-5-[[4-(trifluoromethoxy)phenyl]methyl]-7-[5-[1-(trifluoromethyl)cyclopropyl]-1,2,4-oxadiazol-3-yl]-2,3-dihydro-1λ^6,5-benzothiazepin-4-one] displayed an EC50 in assay [1] of 473 nM. Moreover, in assay [2] (Homo sapiens, T-cell, 120 h), the Emax was determined as 120% and the EC50 was found to be 69.7 nM.
In the case of `N[C@H]1CS(=O)(=O)c2ccc(-c3nnc(C4CC5(CC(O)C5)C4)o3)cc2N(Cc2ccc(Cl)cc2)C1=O` (stereo partly drawn) [Example 387, (3R)-3-amino-5-[(4-chlorophenyl)methyl]-7-[5-(2-hydroxyspiro[3.3]heptan-6-yl)-1,3,4-oxadiazol-2-yl]-1,1-dioxo-2,3-dihydro-1λ^6,5-benzothiazepin-4-one], the EC50 in assay [1] turned out to be 2280 nM; in assay [2] (Homo sapiens, T-cell, 120 h) it was 1120 nM. Further, the Emax in assay [2] (Homo sapiens, T-cell, 120 h) came out at 157%.
For `CC(CO)(CCl)c1nnc(-c2cc3c(cc2F)S(=O)(=O)C[C@H](N)C(=O)N3Cc2ccc(Cl)cc2)o1` (stereo partly drawn) [Example 115, (3R)-3-amino-7-[5-[1-(chloromethyl)-2-hydroxy-1-methyl-ethyl]-1,3,4-oxadiazol-2-yl]-5-[(4-chlorophenyl)methyl]-8-fluoro-1,1-dioxo-2,3-dihydro-1λ^6,5-benzothiazepin-4-one], the EC50 turned out to be 2210 nM in assay [1] and 495 nM in assay [2] (Homo sapiens, T-cell, 120 h). For the same compound, the Emax in assay [2] (Homo sapiens, T-cell, 120 h) was determined as 127%.
Consider `N[C@H]1CS(=O)(=O)c2cc(F)c(-c3nnc(C4CC(F)(F)C4)o3)cc2N(Cc2ccc(Cl)cc2)C1=O` [Example 80, (3R)-3-Amino-5-[(4-chlorophenyl)methyl]-7-[5-(3,3-difluorocyclobutyl)-1,3,4-oxadiazol-2-yl]-8-fluoro-1,1-dioxo-2,3-dihydro-1λ^6,5-benzothiazepin-4-one], for which the EC50 in assay [1] came to 176 nM; in assay [2] (Homo sapiens, T-cell, 120 h), 81.5 nM. Moreover, the Emax in assay [2] (Homo sapiens, T-cell, 120 h) came out at 278%.
In assay [1], `N[C@H]1CS(=O)(=O)c2cc(F)c(-c3nnc(-c4ccc(F)nc4)o3)cc2N(Cc2ccc(Cl)cc2)C1=O` [Example 134, (3R)-3-amino-5-[(4-chlorophenyl)methyl]-8-fluoro-7-[5-(6-fluoro-3-pyridyl)-1,3,4-oxadiazol-2-yl]-1,1-dioxo-2,3-dihydro-1λ^6,5-benzothiazepin-4-one] gave an EC50 of 1360 nM. Further, in assay [2] (Homo sapiens, T-cell, 120 h), the Emax came to 34% and the EC50 is over 10000 nM.
`CCn1cc(-c2cc3c(cc2F)S(=O)(=O)C[C@H](N)C(=O)N3Cc2ccc(Cl)cc2)nn1` [Example 6, (3R)-3-amino-5-[(4-chlorophenyl)methyl]-7-(1-ethyltriazol-4-yl)-8-fluoro-1,1-dioxo-2,3-dihydro-1λ^6,5-benzothiazepin-4-one]: the EC50 is over 20000 nM in assay [1] and over 20000 nM in assay [2] (Homo sapiens, T-cell, 120 h). Moreover, the Emax in assay [2] (Homo sapiens, T-cell, 120 h) was found to be 39%.
The compound `COC(=O)N1CC2CC(c3nnc(-c4ccc5c(c4)N(Cc4ccc(OC(F)(F)F)cc4)C(=O)[C@@H](N)CS5(=O)=O)o3)(C2)C1` [Example 422, Methyl 1-[5-[(3R)-3-amino-1,1,4-trioxo-5-[[4-(trifluoromethoxy)phenyl]methyl]-2,3-dihydro-1λ^6,5-benzothiazepin-7-yl]-1,3,4-oxadiazol-2-yl]-3-azabicyclo[3.1.1]heptane-3-carboxylate] gave an EC50 in assay [1] of 835 nM. For the same compound, in assay [2] (Homo sapiens, T-cell, 120 h), the Emax worked out at 102% and the EC50 amounted to 1830 nM.
In turn, `CN(C)C(=O)c1nc(-c2cc3c(cc2F)S(=O)(=O)C[C@H](N)C(=O)N3Cc2ccc(Cl)cc2)no1` [Example 299, 3-[(3R)-3-amino-5-[(4-chlorophenyl)methyl]-8-fluoro-1,1,4-trioxo-2,3-dihydro-1λ^6,5-benzothiazepin-7-yl]-N,N-dimethyl-1,2,4-oxadiazole-5-carboxamide] came in with an EC50 in assay [1] of 2500 nM. For the same compound, in assay [2] (Homo sapiens, T-cell, 120 h), the Emax came out at 111% and the EC50 was found to be 5010 nM.
As for `N[C@H]1CS(=O)(=O)c2cc(F)c(-c3nnc(CC(F)F)o3)cc2N(Cc2ccc(Cl)cc2)C1=O` [Example 71, (3R)-3-Amino-5-[(4-chlorophenyl)methyl]-7-[5-(2,2-difluoroethyl)-1,3,4-oxadiazol-2-yl]-8-fluoro-1,1-dioxo-2,3-dihydro-1λ^6,5-benzothiazepin-4-one], the EC50 in assay [1] was over 20000 nM; in assay [2] (Homo sapiens, T-cell, 120 h), under 162 nM. Further, the Emax in assay [2] (Homo sapiens, T-cell, 120 h) was 71%.
